Results published in patent publication US9314444B2, “Composition and method for treatment of NASH” (BioKier Inc., priority 2009, dated 2016).

Tests used:
GLP-1 and PYY = experiment: Direct colonic delivery, secretion of gut hormones from the colon; type: in vivo; settings: upper gut bypassed
L-cells in the colon = settings: dosed orally and unformulated; cited from earlier work
[1] = test system: cell lines derived from L-cells; settings: cited from earlier work
rat liver = settings: butyrate formed from carbohydrates via fermentation in the rat colon; cited from earlier work
GLP-1 = experiment: Colon delivered L-glutamine, GLP-1 secretion in human diabetic subjects; type: in vivo

Compound	secretion of GLP-1 from the colon (GLP-1 and PYY)	secretion of PYY from the colon (GLP-1 and PYY)	minimum effective amount (L-cells in the colon)	secretion of gut hormones [1]	fat in the rat liver (rat liver)	secretion of GLP-1 (GLP-1)	toxic dose (L-cells in the colon)
CCCC(=O)O [butyric acid]	increase	increase	30 grams	induce secretion	reduces		
CCC(=O)O [propionic acid]	increase	increase	30 grams	induce secretion			
NC(=O)CC[C@H](N)C(=O)O [L-glutamine]	increase	increase	30 grams	induce secretion		increased	≥ 30 grams
